According to patent publication US6825170B2, “6-O-acyl ketolide antibacterials” (Ortho-McNeil Pharmaceutical, Inc., priority 2001, dated 2004):
≈ marks a conversion by molar mass, not a printed value.

What was measured:
Assay in all cases: MIC, microdilution broth method (NCCLS)
Format in all cases: cell-based
Settings in all cases: 35° C., 16-20 hours
[1] = test system: E. coli OC2605
Method in brief: (§1)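 Actively growing broth cultures are turbidity-adjusted to give about 5×10^4 CFU/well, then added to two-fold compound dilutions in cation-adjusted Mueller-Hinton broth. After 16-20 hours at 35° C, growth is compared with untreated controls.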

[2] = test system: E. faecalis ATCC29212
Method in brief: as §1

[3] = test system: H. influenzae ATCC49247
Method in brief: as §1

[4] = test system: S. aureus ATCC29213
Method in brief: as §1

[5] = test system: S. pneumoniae ATCC49619
Method in brief: as §1

Row | SMILES | MIC (A: E. coli OC2605) [1] [µg/mL] | MIC (C: E. faecalis ATCC29212) [2] [µg/mL] | MIC (E: H. influenzae ATCC49247) [3] [µg/mL] | MIC (B: S. aureus ATCC29213) [4] [µg/mL] | MIC (D: S. pneumoniae ATCC49619) [5] [µg/mL]
1 | CCC1OC(=O)C(C)C(=O)C(C)C(OC2OC(C)CC(N(C)C)C2O)C(C)(OC(=O)n2cccc2)CC(C)C(=O)C(C)C2NC(=O)OC12C (stereo not shown) [Compound 2] | >16 | 8 (≈ 11.6 µM) | >16 | >16 | 0.5 (≈ 0.723 µM)
2 | CCC1OC(=O)C(C)C(=O)C(C)C(OC2OC(C)CC(N(C)C)C2O)C(C)(OC(=O)n2ccc(C=O)c2)CC(C)C(=O)C(C)C2NC(=O)OC12C (stereo not shown) [Compound 3] | >16 | 4 (≈ 5.56 µM) | >16 | >16 | 1 (≈ 1.39 µM)
3 | CCC1OC(=O)C(C)C(=O)C(C)C(OC2OC(C)CC(N(C)C)C2O)C(C)(OC(=O)n2ccc(C#N)c2)CC(C)C(=O)C(C)C2NC(=O)OC12C (stereo not shown) [Compound 4] | >16 | 4 (≈ 5.58 µM) | >16 | >16 | 1 (≈ 1.4 µM)
4 | CC[C@H]1OC(=O)[C@H](C)C(=O)[C@H](C)[C@@H](O[C@@H]2O[C@H](C)C[C@H](N(C)C)[C@H]2O)[C@](C)(OC(=O)NN=C/C=C/c2ccc(-c3ncccn3)cc2)C[C@@H](C)C(=O)[C@H](C)[C@H]2NC(=O)O[C@@]21C [Compound 827] | – | 1 (≈ 1.18 µM) | 8 (≈ 9.42 µM) | 1 (≈ 1.18 µM) | 0.12 (≈ 0.141 µM)
5 | CC[C@H]1OC(=O)[C@H](C)C(=O)[C@H](C)[C@@H](O[C@@H]2O[C@H](C)C[C@H](N(C)C)[C@H]2O)[C@](C)(OC(=O)SC/C=C/c2ccccc2)C[C@@H](C)C(=O)[C@H](C)[C@H]2NC(=O)O[C@@]21C [Compound 830] | – | 0.5 (≈ 0.645 µM) | 4 (≈ 5.16 µM) | 1 (≈ 1.29 µM) | 0.12 (≈ 0.155 µM)
6 | CC[C@H]1OC(=O)[C@H](C)C(=O)[C@H](C)[C@@H](O[C@@H]2O[C@H](C)C[C@H](N(C)C)[C@H]2O)[C@](C)(OC(=O)SCc2ccccc2)C[C@@H](C)C(=O)[C@H](C)[C@H]2NC(=O)O[C@@]21C [Compound 831] | – | 0.25 (≈ 0.334 µM) | 8 (≈ 10.7 µM) | 2 (≈ 2.67 µM) | 0.06 (≈ 0.0801 µM)
7 | C=CCSC(=O)O[C@]1(C)C[C@@H](C)C(=O)[C@H](C)[C@H]2NC(=O)O[C@]2(C)[C@@H](CC)OC(=O)[C@H](C)C(=O)[C@H](C)[C@H]1O[C@@H]1O[C@H](C)C[C@H](N(C)C)[C@H]1O [Compound 832] | – | 0.5 (≈ 0.715 µM) | 8 (≈ 11.4 µM) | 4 (≈ 5.72 µM) | 0.25 (≈ 0.358 µM)
8 | CC[C@H]1OC(=O)[C@H](C)C(=O)[C@H](C)[C@@H](O[C@@H]2O[C@H](C)C[C@H](N(C)C)[C@H]2O)[C@](C)(OC(=O)SC/C=C/c2ccc(-c3ncccn3)cc2)C[C@@H](C)C(=O)[C@H](C)[C@H]2NC(=O)O[C@@]21C [Compound 833] | – | 0.25 (≈ 0.293 µM) | 16 (≈ 18.8 µM) | 0.5 (≈ 0.586 µM) | 0.06 (≈ 0.0703 µM)
9 | CC[C@H]1OC(=O)[C@H](C)C(=O)[C@H](C)[C@@H](O[C@@H]2O[C@H](C)C[C@H](N(C)C)[C@H]2O)[C@](C)(OC(=O)SCc2ccc(-c3ncccn3)cc2)C[C@@H](C)C(=O)[C@H](C)[C@H]2NC(=O)O[C@@]21C [Compound 834] | – | 0.12 (≈ 0.145 µM) | 8 (≈ 9.67 µM) | 0.5 (≈ 0.605 µM) | <0.015
10 | CC[C@H]1OC(=O)[C@H](C)C(=O)[C@H](C)[C@@H](O[C@@H]2O[C@H](C)C[C@H](N(C)C)[C@H]2O)[C@](C)(OC(=O)SCCc2ccc(-c3ncccn3)cc2)C[C@@H](C)C(=O)[C@H](C)[C@H]2NC(=O)O[C@@]21C [Compound 835] | – | 0.12 (≈ 0.143 µM) | 4 (≈ 4.76 µM) | 0.5 (≈ 0.595 µM) | 0.03 (≈ 0.0357 µM)
